According to paper PMC7956620 (Molecules, 2021):
Like-named read-outs stand apart in the source and are kept apart here.

Molecular target: T1, human 5-HT3A receptor (Homo sapiens, UniProt P46098)
T1 construct: host or cells: Xenopus laevis oocytes injected with in vitro transcribed mRNA
T1 sequence (P46098 24-478): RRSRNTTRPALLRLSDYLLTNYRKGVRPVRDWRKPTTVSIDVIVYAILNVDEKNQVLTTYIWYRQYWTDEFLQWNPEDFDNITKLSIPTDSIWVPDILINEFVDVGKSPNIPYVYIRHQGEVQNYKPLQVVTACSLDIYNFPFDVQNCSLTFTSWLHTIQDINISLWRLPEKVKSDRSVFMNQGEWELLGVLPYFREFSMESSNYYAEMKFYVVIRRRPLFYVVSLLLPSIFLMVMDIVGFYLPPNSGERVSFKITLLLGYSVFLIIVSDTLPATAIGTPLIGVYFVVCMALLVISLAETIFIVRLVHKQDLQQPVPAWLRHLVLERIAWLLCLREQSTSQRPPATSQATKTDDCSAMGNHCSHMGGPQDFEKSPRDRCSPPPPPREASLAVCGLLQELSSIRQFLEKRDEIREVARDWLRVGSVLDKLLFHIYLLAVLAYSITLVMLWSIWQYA
Assay: cell-based
Type: cell-based
Settings: for inhibition of voltage ramp current activated by 5-HT: 100 µM 5-HT and EC
Protocol: Human 5-hydroxytryptamine (serotonin) receptor 3A cDNA (Genebank number: BC004453) was obtained from OriGene (Rockville, MD, USA). Figure 1A represents the chemical structure of two ergot alkaloids, EG and EC, obtained from Sigma-Aldrich (St. Louis, MO, USA). These ergot alkaloids were diluted in bath solution after dissolving in dimethyl sulfoxide (DMSO) for use as stock solutions. The final treatment concentration of DMSO was less than 0.01%. Xenopus laevis frogs were obtained from the Korean Xenopus Resource Center for Research (KXRCR000001, Chuncheon, Gangwondo, Korea), and other agents were purchased from Sigma-Aldrich.
To isolate oocytes, female Xenopus laevis were put into a container filled with ice and left for about one hour. When the blood vessels contracted and fell into a state similar to hibernation, the abdomen was incised, and the ovaries were removed and cut into small pieces in Ca^2+-free OR2 solution (82.5 mM NaCl, 2.5 mM KCl, 1 mM MgCl2, and 5 mM HEPES, pH 7.4) with 2 mg/mL collagenase. After a 2 h agitation to digest the follicle membranes, isolated oocytes in stages Ⅴ and Ⅵ were selected and washed repeatedly. The selected oocytes were maintained in ND96 incubation solution (96 mM NaCl, 2 mM KCl, 1.8 mM CaCl2, 1 mM MgCl2, 5 mM HEPES, 2.5 mM sodium pyruvate, and 50 µg/mL gentamycin, pH 7.4) at 16–18 °C. The solution containing the oocytes was changed twice a day and stored in a shaking incubator. Under the microscope, the end of a glass capillary was broken and fitted with a 20 µm diameter needle and filled with mineral oil, discharging air bubbles from the tip. When the Xenopus oocytes were ready for injection, 50 ng of mRNA was injected with a nanoliter injector (Drummond Scientific, Vernon Hills, IL, USA). The recording was started after two days of sufficient shaking incubation in ND96 solution. Surgery, microinjections, and the other handling of Xenopus laevis followed the standard protocols.
The oocytes in which mRNA was expressed during the incubation period allowed for the estimation of channel or receptor properties for observing drug and ligand potential interactions using a two-electrode voltage clamp (OC-725C; Warner Instruments, Hamden, CT, USA) and Digidata (1322A; Molecular Devices, Sunnyvale, CA, USA). The two-electrode voltage clamp had voltage and current electrodes that stably maintained the potential and delivered the transmembrane potential and high current. […] A computer transferred the converted output amplitude of the voltage clamp amplifiers to an input digital converter using pClamp 10 software (Axon Instruments, Union City, CA, USA). The voltage and current electrodes were filled with 3 M KCl (0.3–0.7 MΩ) and analyzed at a −80 mV holding potential. The oocytes were placed in the chamber and exposed to a ND96 solution at a flow rate of 2 mL per minute. In the electrophysiological experiments, the voltage ramp recording was performed at room temperature, and a current from −80 to +60 mV was applied to determine the current and voltage relationships. Inward peak traces of the 5-HT3A receptor and voltage ramp traces were converted to a value through Clampfit 9.0 (Molecular Devices, San Jose, CA, USA).
In the experiments, all data were represented as the mean ± SEM (standard error of the mean) of the 5-HT-stimulated inward peak in the 5-HT3A receptors. […] All curves plotted through the Hill equation were generated using Origin Pro 7.0 (OriginLab, Northampton, MA, USA). The significance of differences between the control and chanoclavine treatment was determined according to the p-value in the Student’s t-test. p-values of less than 0.05 were considered statistically significant.

SMILES: CN[C@@H]1Cc2c[nH]c3cccc(c23)[C@H]1/C=C(\C)CO [chanoclavine]
- inhibition at 10 µM (10 µM compound with 100 µM 5-HT, −80 mV, read-out: inhibition of I5-HT): 4 ± 3.8%
- inhibition at 30 µM (30 µM compound with 100 µM 5-HT, −80 mV, read-out: inhibition of I5-HT): 7.9 ± 4.1%
- inhibition at 100 µM (100 µM chanoclavine, wild type, read-out: Inhibition Percentage (%)): 42.5 ± 5.7%
- inhibition at 100 µM (100 µM compound with 100 µM 5-HT, −80 mV, read-out: inhibition of I5-HT): 42.5 ± 9.7%
- inhibition at 200 µM (200 µM compound with 100 µM 5-HT, −80 mV, read-out: inhibition of I5-HT): 61.6 ± 6.1%
- inhibition at 300 µM (300 µM compound with 100 µM 5-HT, −80 mV, read-out: inhibition of I5-HT): 75 ± 4.5%
- Imax of normalized 5-HT concentration-response current (5-HT 1 to 100 µM with 30 µM EC, −80 mV): 94.6 ± 24.4
- Imax of normalized 5-HT concentration-response current (5-HT 1 to 100 µM with 100 µM EC, −80 mV): 60 ± 2.2
- inhibition of voltage ramp current activated by 5-HT (+30 mV): 47.9 ± 3.4%
- inhibition of voltage ramp current activated by 5-HT (+60 mV): 49.5 ± 4%
- maximum inhibition (Imax) (Hill fit, co-application with 100 µM 5-HT, −80 mV): 83.6 ± 12.6%
- IC50 (co-application with 5-HT, read-out: half-maximal inhibitory response concentration (IC50) for block of 5-HT-induced 5-HT3A response): 107 µM
- current relative to the control group (competing at the same rate as 5-HT): about 50%
- manner of regulation of 5-HT3A-receptor channel activity (varied 5-HT concentration, fixed 30 or 100 µM chanoclavine): competitive
- inhibition of voltage ramp current activated by 5-HT (−30 mV): 40.9 ± 1.1%
- effect of compound alone (without 5-HT) (−80 mV holding potential, data not shown): no change
